# Reference: ChEMBL document CHEMBL1201862, “PubChem BioAssay data set” (2004)
# The source made the active and inactive calls.
# Legend:
# Protein skinhead-1 = target: T1, Protein skinhead-1 (Caenorhabditis elegans, UniProt P34707); type: functional
# T1 sequence (P34707 whole entry): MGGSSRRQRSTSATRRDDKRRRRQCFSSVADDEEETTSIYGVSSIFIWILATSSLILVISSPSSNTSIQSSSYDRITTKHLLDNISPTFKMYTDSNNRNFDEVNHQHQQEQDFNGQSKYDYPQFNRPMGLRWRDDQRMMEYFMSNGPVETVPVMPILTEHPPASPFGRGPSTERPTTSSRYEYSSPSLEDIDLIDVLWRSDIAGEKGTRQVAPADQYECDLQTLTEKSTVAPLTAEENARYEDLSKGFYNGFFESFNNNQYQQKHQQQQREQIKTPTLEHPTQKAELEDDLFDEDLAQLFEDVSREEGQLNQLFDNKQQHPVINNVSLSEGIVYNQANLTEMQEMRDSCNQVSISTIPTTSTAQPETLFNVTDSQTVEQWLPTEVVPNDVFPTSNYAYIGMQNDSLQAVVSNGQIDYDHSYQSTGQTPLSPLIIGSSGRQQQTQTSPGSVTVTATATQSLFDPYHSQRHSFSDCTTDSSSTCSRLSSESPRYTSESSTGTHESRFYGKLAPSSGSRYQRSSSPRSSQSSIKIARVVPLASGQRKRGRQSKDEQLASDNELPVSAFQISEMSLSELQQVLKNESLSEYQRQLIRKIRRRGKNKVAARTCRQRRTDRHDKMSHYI
# [1] = viability of uninfected HEp-2 cells – cell-based, HTS, cytotoxicity control for RSV inhibitor project, dose response (AID 2410); type: functional; settings: human respiratory syncytial virus
# Nonstructural protein 1 = Nonstructural protein 1 (Influenza A virus, UniProt Q194T2); type: functional, Influenza A virus (A/California/07/2009(H1N1))
# Chain of Nonstructural protein 1 (Q194T2 whole entry): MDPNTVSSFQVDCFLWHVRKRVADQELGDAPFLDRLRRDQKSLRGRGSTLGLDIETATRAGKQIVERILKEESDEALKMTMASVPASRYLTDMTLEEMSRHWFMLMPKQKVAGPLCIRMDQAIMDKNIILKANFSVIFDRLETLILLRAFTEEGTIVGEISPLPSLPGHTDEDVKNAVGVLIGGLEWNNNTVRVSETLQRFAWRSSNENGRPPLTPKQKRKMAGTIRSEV
# Streptococcus = assay: GAS UMAA2166 growth inhibition – luminescence, BacTiterGlo, counter-screen for streptokinase expression inhibitor project, dose response (AID 1915); type: functional, organism-based;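 further: potency for reduction of bacterial viability or growth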
# Streptokinase A = target: T2, Streptokinase A (Streptococcus pyogenes serotype M1, UniProt P10520); assay: viability-normalized secreted streptokinase activity reduction – plasminogen activation absorbance, OD405, dose response (AID 1914); type: functional, Streptococcus pyogenes M1 GAS;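 further: secreted streptokinase activity via plasminogen activation per viability signal from cell pellet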
# T2 sequence (P10520 whole entry): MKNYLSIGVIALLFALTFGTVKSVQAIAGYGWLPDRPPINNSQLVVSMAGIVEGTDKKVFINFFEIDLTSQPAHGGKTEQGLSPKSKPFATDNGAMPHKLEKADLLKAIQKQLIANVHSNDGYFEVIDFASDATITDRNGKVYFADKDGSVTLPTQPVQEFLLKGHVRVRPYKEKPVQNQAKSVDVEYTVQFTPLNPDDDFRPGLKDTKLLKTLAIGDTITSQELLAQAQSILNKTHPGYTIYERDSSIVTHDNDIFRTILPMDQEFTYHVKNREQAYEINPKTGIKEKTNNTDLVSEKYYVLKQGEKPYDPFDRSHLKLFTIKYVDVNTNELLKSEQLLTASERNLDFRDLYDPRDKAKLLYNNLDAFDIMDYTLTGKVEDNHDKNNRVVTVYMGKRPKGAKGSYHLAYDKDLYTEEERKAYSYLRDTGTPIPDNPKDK
# [2] = test system: Streptococcus sp. 'group A'; assay: Streptococcus pyogenes SK(-)GAS viability under kanamycin – luminescence, BacTiterGlo, confirmation, counter-screen for streptokinase expression inhibitor project, dose response (AID 1900); type: functional, organism-based
# H9c2 = assay: cells; type: functional, cell-based; settings: Rattus norvegicus, H9c2, Myocardium;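 further: confirmatory concentration-response retest of ultra-high-throughput screening hits for modulation of myocardial damage; cell death induced by hydrogen peroxide oxidative stress; compound pretreatment for 60 min then peroxide exposure for 2 h; potency is for protecting the cells against peroxide damage rather than for killing them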
# [3] = Trypanosoma cruzi growth suppression in host cells – NIH3T3 host cells, beta-gal luminescence, confirmation (AID 2044); type: functional, cell-based;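 further: intracellular parasites grown in NIH/3T3 mouse fibroblasts as host cells; luminescent beta-galactosidase reporter signal from transgenic T. cruzi replicating inside host cells; inhibitors lower the luminescence signal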
# [4] = NIH3T3 cell viability loss – ATP luminescence, mouse fibroblasts, counter-screen, dose response (AID 2010); type: functional, cell-based;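 further: cells exposed to compound for about 90 hours before reading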
# [5] = fluconazole-exposed Candida albicans growth modulators – fluorescence, retest, confirmation (AID 2467); type: functional, cell-based
# [6] = NIH-3T3 fibroblast cytotoxicity, dose response, cytotoxicity control, cell-based, fluorescence, Alamar Blue, secondary assay (AID 2327); type: functional;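 further: NIH-3T3 mouse fibroblasts cultured with fluconazole at 8 µg/mL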
# [7] = Luminescence Cell-Based Dose Retest to Confirm Inhibitors of Cancer Stem Cells. [Related pubchem assays (depositor defined):AID2717, AID2721]; type: functional; settings: Homo sapiens
# [8] = alpha-synuclein stem-loop luciferase translation blockers – H4 neuroglioma cells, luminescence, confirmation (AID 1988); type: functional, cell-based
# [9] = luciferase reporter signal suppression in cells – H4 neuroglioma cells, luminescence, dose response (AID 1990); type: functional, cell-based
# [10] = Luminescence Cell-Based Dose Response HTS to Identify Inhibitors of 5'UTR Stem-Loop Driven Prion Protein mRNA Translation in H4 Neuroglioblastoma Cells. [Related pubchem assays: 1827 (Project Summary), 1813 (Primary HTS)]; type: functional
# [11] = target: T3, Replicative DNA helicase DnaB (Mycobacterium tuberculosis, UniProt P9WMR3); assay: DnaB intein splicing inhibitors, dose response, biochemical, cell-free fluorescence (AID 449749); type: functional
# T3 sequence (P9WMR3 whole entry): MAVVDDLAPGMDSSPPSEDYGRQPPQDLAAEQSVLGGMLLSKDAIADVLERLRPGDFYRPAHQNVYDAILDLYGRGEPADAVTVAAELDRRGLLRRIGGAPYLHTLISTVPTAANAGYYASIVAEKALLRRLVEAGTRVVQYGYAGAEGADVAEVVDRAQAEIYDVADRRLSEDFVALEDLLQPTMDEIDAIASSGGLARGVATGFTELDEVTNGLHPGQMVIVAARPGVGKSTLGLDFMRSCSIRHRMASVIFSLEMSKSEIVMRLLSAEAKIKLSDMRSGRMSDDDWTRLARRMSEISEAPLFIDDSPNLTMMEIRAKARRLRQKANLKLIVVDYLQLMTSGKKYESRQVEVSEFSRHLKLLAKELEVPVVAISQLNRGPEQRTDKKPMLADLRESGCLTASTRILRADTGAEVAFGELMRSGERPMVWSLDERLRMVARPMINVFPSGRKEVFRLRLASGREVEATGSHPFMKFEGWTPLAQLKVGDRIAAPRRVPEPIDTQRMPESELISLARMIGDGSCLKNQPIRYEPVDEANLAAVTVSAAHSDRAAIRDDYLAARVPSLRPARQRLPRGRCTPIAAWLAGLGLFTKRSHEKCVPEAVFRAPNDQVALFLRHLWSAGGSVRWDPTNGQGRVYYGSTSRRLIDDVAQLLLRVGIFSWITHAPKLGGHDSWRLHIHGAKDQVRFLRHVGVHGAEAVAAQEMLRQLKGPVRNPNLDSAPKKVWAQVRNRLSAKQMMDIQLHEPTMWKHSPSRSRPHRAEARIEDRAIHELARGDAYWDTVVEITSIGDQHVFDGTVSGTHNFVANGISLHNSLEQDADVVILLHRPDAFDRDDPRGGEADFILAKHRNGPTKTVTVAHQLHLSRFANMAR
# Protein RecA = target: T4, Protein RecA (Mycobacterium tuberculosis, UniProt P9WHJ3); assay: Fluorescence Cell-Free Homogeneous Dose Retest to Identify Inhibitors of RecA-Intein Splicing Activity. [Related pubchem assays (depositor defined):AID2097, AID2223, AID489010, AID492950]; type: functional
# T4 sequence (P9WHJ3 whole entry): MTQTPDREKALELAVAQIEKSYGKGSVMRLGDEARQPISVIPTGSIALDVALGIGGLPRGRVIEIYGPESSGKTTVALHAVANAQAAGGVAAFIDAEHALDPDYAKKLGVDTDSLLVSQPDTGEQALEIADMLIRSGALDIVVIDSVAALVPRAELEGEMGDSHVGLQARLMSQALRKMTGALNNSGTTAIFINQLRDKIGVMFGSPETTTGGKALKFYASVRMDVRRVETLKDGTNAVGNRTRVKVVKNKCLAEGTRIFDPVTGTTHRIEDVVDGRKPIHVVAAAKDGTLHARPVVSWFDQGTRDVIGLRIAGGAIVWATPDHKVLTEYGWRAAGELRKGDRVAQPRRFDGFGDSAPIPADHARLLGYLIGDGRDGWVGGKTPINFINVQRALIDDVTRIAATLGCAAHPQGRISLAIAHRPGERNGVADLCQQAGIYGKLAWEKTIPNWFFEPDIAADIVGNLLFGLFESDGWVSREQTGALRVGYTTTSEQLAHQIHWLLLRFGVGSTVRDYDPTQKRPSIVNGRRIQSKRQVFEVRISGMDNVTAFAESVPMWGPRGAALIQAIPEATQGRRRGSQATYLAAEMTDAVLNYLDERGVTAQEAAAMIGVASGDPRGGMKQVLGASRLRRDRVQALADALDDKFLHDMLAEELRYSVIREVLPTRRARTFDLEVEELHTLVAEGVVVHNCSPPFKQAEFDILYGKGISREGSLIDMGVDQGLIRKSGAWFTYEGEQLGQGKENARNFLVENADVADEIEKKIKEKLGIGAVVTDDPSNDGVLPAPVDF
smiles,measurement,setting,value
O=C(NCCOc1ccc(Cl)cc1)c1ccc2ccccc2n1,IC50,Protein skinhead-1,> 100 µM (inactive)
same,CC50,[1],20.9 µM (active)
O=C1c2ccccc2-c2onc3c(N4CCN(CCO)CC4)cc(N4CCN(C(=O)c5ccco5)CC4)c1c23,IC50,Nonstructural protein 1,9.93 µM (active)
CCCCCn1c(N)c(-c2nc3ccccc3s2)c2c([N+](=O)[O-])nn(CC)c(=O)c21,IC50,Nonstructural protein 1,> 50 µM (active)
same,EC50,Streptococcus,> 150 µM (not active)
same,EC50,Streptokinase A,> 150 µM (not active)
same,EC50,[2],6.03 µM (active)
Cc1ccc(C(C(=O)NCc2ccccc2)N(Cc2ccco2)C(=O)c2snc(C(N)=O)c2N)o1 (centres undefined),IC50,H9c2,> 79 µM (inactive)
FCCCOc1ccc(-c2nccc(-c3ccccn3)n2)cc1,IC50,Protein skinhead-1,17.9 µM (active)
CCC(c1nnnn1Cc1ccco1)N(Cc1cc2cc(C)cc(C)c2nc1O)CC1CCCO1 (centres undefined),IC50,H9c2,> 79 µM (inactive)
CC(C)OC(=O)C(=O)NNc1ccccc1,EC50,[3],0.792 µM (active)
same,EC50,[4],< 6 µM (inconclusive)
same,EC50,[5],> 38 µM (not active)
same,EC50,[6],1.21 µM (active)
same,AC50,[7],0.731 µM (active)
Cc1cccc(OCCn2nc(C(=O)O)c3ccccc3c2=O)c1,IC50,H9c2,> 79 µM (inactive)
CC(OC(=O)CCc1nc(O)c2ccccc2n1)C(=O)NC1CCCC1 (centres undefined),IC50,H9c2,30.3 µM (inactive)
COc1ccc(CNC(=O)c2ccc(Cn3nc(C)c([N+](=O)[O-])c3C)o2)cc1,IC50,H9c2,> 79 µM (inactive)
CN1CCc2c(sc3c2C(=O)NC(c2ccccc2)N3)C1 (centres undefined),IC50,Protein skinhead-1,> 100 µM (inactive)
O=C(CCS(=O)(=O)c1ccccc1)Nc1nnc(C(F)(F)F)s1,EC50,[5],0.302 µM (active)
same,EC50,[6],> 160 µM (inactive)
CCOC(=O)C1(C)C(N=Nc2ccc(Cl)cc2)=C(O)C(=O)N1c1ccccc1 (centres undefined),IC50,Protein skinhead-1,> 100 µM (inactive)
Cc1cc(N2C(=O)C(O)=C(C(=O)c3cc4ccccc4o3)C2c2cccs2)no1 (centres undefined),EC50,[5],1.17 µM (active)
same,EC50,[6],70.9 µM (active)
Cc1ccccc1NC(=O)CSc1nn2c(=O)c(C)nnc2s1,IC50,Nonstructural protein 1,10.5 µM (active)
Fc1ccc(Nc2cccc3nccnc23)cc1,IC50,Protein skinhead-1,34.1 µM (active)
COc1ccccc1NC(=O)Nc1nc(CC(=O)Nc2ccc(N(C)C)cc2)cs1,IC50,Nonstructural protein 1,26.9 µM (active)
O=C(Nc1ccccc1Oc1ccccc1)c1cccs1,IC50,Protein skinhead-1,> 100 µM (inactive)
Oc1ccc(NCc2nnc(O)c3ccccc23)cc1,IC50,H9c2,> 79 µM (inactive)
O=C(CCc1nc(O)c2ccccc2n1)NNC(=O)c1ccccc1Cl,IC50,H9c2,16.2 µM (active)
CCOC(=O)c1ccc(NC(=O)Nc2ccn(C)n2)cc1,EC50,[5],4.84 µM (active)
same,EC50,[6],> 150 µM (inconclusive)
O=C(CC(NCCN1CCOCC1)C(=O)O)Nc1cccc(Cl)c1 (centres undefined),EC50,[5],> 38 µM (not active)
same,EC50,[6],86.4 µM (active)
CCCn1c(N)c(C(c2ccc(OC)cc2)N2CCN(c3ccccc3)CC2)c(=O)[nH]c1=O (centres undefined),IC50,Protein skinhead-1,> 100 µM (inactive)
CN(C)c1ccc(C=NN2CCCCCC2)cc1,IC50,Nonstructural protein 1,48.1 µM (active)
O=C(Sc1ccc(Cl)cc1)c1ccccn1,IC50,Protein skinhead-1,44.5 µM (active)
CCCCN(Cc1nc(O)c2ccccc2n1)C(=O)CN1C(=O)NC2(CCCCC2)C1=O,IC50,H9c2,16.4 µM (active)
COc1cc2sc3cc(NCc4ccc(C)o4)ccc3c(=O)c2cc1OC,IC50,Protein skinhead-1,> 100 µM (inactive)
Nc1nonc1-n1nnc(C(=O)N/N=C/c2ccccn2)c1CNc1ccccc1,IC50,H9c2,18.1 µM (active)
O=C(Nc1cccc(/N=C/c2cc(Cl)cc(Br)c2O)c1)c1ccco1,IC50,H9c2,12.3 µM (active)
COc1ccccc1C(=O)NCC(=O)N/N=C/c1cc(Br)ccc1OC(=O)/C=C\c1ccco1,EC50,[8],11 µM (active)
same,IC50,H9c2,> 79 µM (inactive)
same,EC50,[9],11.9 µM (active)
same,EC50,[10],12 µM (active)
O=C(O)c1cccc(N/N=C(\N=Nc2ccccc2)c2ccccc2)c1,IC50,Nonstructural protein 1,34.5 µM (active)
same,AC50,[11],7.75 µM (active)
same,AC50,[7],2.45 µM (active)
same,EC50,Protein RecA,51.1 µM (active)
